Source: PubChem BioAssay (NCI)
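Cultured in 96-well plates, cells were exposed to test compound for 48 hours across five concentrations. The concentration for 50% growth inhibition is given as GI50. TGI is the concentration that stops growth completely.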

Assays:
Assay in all cases: inhibition of tumour cell growth, NCI panel, 48 h
786-0 renal = test system: 786-0 renal
A498 renal = test system: A498 renal
A549 NSCLC = test system: A549 NSCLC
ACHN renal = test system: ACHN renal
BT-549 breast = test system: BT-549 breast
CAKI-1 renal = test system: CAKI-1 renal
CCRF-CEM leukemia = test system: CCRF-CEM leukemia
COLO 205 colon = test system: COLO 205 colon
DU-145 prostate = test system: DU-145 prostate
EKVX NSCLC = test system: EKVX NSCLC
HCC-2998 colon = test system: HCC-2998 colon
HCT-116 colon = test system: HCT-116 colon
HCT-15 colon = test system: HCT-15 colon
HL-60(TB) leukemia = test system: HL-60(TB) leukemia
HOP-62 NSCLC = test system: HOP-62 NSCLC
HOP-92 NSCLC = test system: HOP-92 NSCLC
HS 578T breast = test system: HS 578T breast
HT29 colon = test system: HT29 colon
IGROV1 ovarian = test system: IGROV1 ovarian
K-562 leukemia = test system: K-562 leukemia
KM12 colon = test system: KM12 colon
LOX IMVI melanoma = test system: LOX IMVI melanoma
M14 melanoma = test system: M14 melanoma
MCF7 breast = test system: MCF7 breast
MDA-MB-231 breast = test system: MDA-MB-231 breast
MDA-MB-435 = test system: MDA-MB-435
MOLT-4 leukemia = test system: MOLT-4 leukemia
NCI-H226 lung = test system: NCI-H226 lung
NCI-H23 lung = test system: NCI-H23 lung
NCI-H460 lung = test system: NCI-H460 lung
NCI-H522 lung = test system: NCI-H522 lung
NCI/ADR-RES ovarian = test system: NCI/ADR-RES ovarian
OVCAR-3 ovarian = test system: OVCAR-3 ovarian
OVCAR-4 ovarian = test system: OVCAR-4 ovarian
OVCAR-5 ovarian = test system: OVCAR-5 ovarian
OVCAR-8 ovarian = test system: OVCAR-8 ovarian
PC-3 prostate = test system: PC-3 prostate
RPMI-8226 leukemia = test system: RPMI-8226 leukemia
RXF 393 renal = test system: RXF 393 renal
SF-268 CNS = test system: SF-268 CNS
SF-295 CNS = test system: SF-295 CNS
SF-539 CNS = test system: SF-539 CNS
SK-MEL-2 melanoma = test system: SK-MEL-2 melanoma
SK-MEL-28 melanoma = test system: SK-MEL-28 melanoma
SK-MEL-5 melanoma = test system: SK-MEL-5 melanoma
SK-OV-3 ovarian = test system: SK-OV-3 ovarian
SN12C renal = test system: SN12C renal
SNB-19 CNS = test system: SNB-19 CNS
SNB-75 CNS = test system: SNB-75 CNS
SR leukemia = test system: SR leukemia
SW-620 colon = test system: SW-620 colon
T-47D breast = test system: T-47D breast
TK-10 renal = test system: TK-10 renal
U251 CNS = test system: U251 CNS
UACC-257 melanoma = test system: UACC-257 melanoma
UACC-62 melanoma = test system: UACC-62 melanoma
UO-31 renal = test system: UO-31 renal

C=C(CC1(CC(=C)c2ccc(C(=O)O)cc2)C(=O)N(C)C(=O)N(C)C1=O)c1ccc(C(=O)O)cc1
GI50 (786-0 renal): > 100 µM | TGI (786-0 renal): > 100 µM | GI50 (A498 renal): 53.2 µM | TGI (A498 renal): > 100 µM | GI50 (A549 NSCLC): > 100 µM | TGI (A549 NSCLC): > 100 µM | GI50 (ACHN renal): > 100 µM | TGI (ACHN renal): > 100 µM | GI50 (BT-549 breast): > 100 µM | TGI (BT-549 breast): > 100 µM | GI50 (CAKI-1 renal): 60.3 µM | TGI (CAKI-1 renal): > 100 µM | GI50 (CCRF-CEM leukemia): 65.2 µM | TGI (CCRF-CEM leukemia): > 100 µM | GI50 (COLO 205 colon): 29.1 µM | TGI (COLO 205 colon): > 100 µM | GI50 (DU-145 prostate): > 100 µM | TGI (DU-145 prostate): > 100 µM | GI50 (EKVX NSCLC): > 100 µM | TGI (EKVX NSCLC): > 100 µM | GI50 (HCC-2998 colon): 61.2 µM | TGI (HCC-2998 colon): > 100 µM | GI50 (HCT-116 colon): 49.6 µM | TGI (HCT-116 colon): > 100 µM | GI50 (HCT-15 colon): > 100 µM | TGI (HCT-15 colon): > 100 µM | GI50 (HL-60(TB) leukemia): 34.4 µM | TGI (HL-60(TB) leukemia): > 100 µM | GI50 (HOP-62 NSCLC): 66.5 µM | TGI (HOP-62 NSCLC): > 100 µM | GI50 (HOP-92 NSCLC): 78.4 µM | TGI (HOP-92 NSCLC): > 100 µM | GI50 (HS 578T breast): 67.8 µM | TGI (HS 578T breast): > 100 µM | GI50 (HT29 colon): 48.7 µM | TGI (HT29 colon): > 100 µM | GI50 (IGROV1 ovarian): 47.4 µM | TGI (IGROV1 ovarian): > 100 µM | GI50 (K-562 leukemia): 35.9 µM | TGI (K-562 leukemia): > 100 µM | GI50 (KM12 colon): > 100 µM | TGI (KM12 colon): > 100 µM | GI50 (LOX IMVI melanoma): 80.8 µM | TGI (LOX IMVI melanoma): > 100 µM | GI50 (M14 melanoma): > 100 µM | TGI (M14 melanoma): > 100 µM | GI50 (MCF7 breast): 73.9 µM | TGI (MCF7 breast): > 100 µM | GI50 (MDA-MB-231 breast): > 100 µM | TGI (MDA-MB-231 breast): > 100 µM | GI50 (MDA-MB-435): 51.7 µM | TGI (MDA-MB-435): > 100 µM | GI50 (MOLT-4 leukemia): 38.3 µM | TGI (MOLT-4 leukemia): > 100 µM | GI50 (NCI-H226 lung): > 100 µM | TGI (NCI-H226 lung): > 100 µM | GI50 (NCI-H23 lung): > 100 µM | TGI (NCI-H23 lung): > 100 µM | GI50 (NCI-H460 lung): > 100 µM | TGI (NCI-H460 lung): > 100 µM | GI50 (NCI-H522 lung): 31.3 µM | TGI (NCI-H522 lung): > 100 µM | GI50 (NCI/ADR-RES ovarian): 63.8 µM | TGI (NCI/ADR-RES ovarian): > 100 µM | GI50 (OVCAR-3 ovarian): 96.6 µM | TGI (OVCAR-3 ovarian): > 100 µM | GI50 (OVCAR-4 ovarian): 23.2 µM | TGI (OVCAR-4 ovarian): > 100 µM | GI50 (OVCAR-5 ovarian): 43.6 µM | TGI (OVCAR-5 ovarian): > 100 µM | GI50 (OVCAR-8 ovarian): 62.8 µM | TGI (OVCAR-8 ovarian): > 100 µM | GI50 (PC-3 prostate): 63.2 µM | TGI (PC-3 prostate): > 100 µM | GI50 (RPMI-8226 leukemia): 21.8 µM | TGI (RPMI-8226 leukemia): > 100 µM | GI50 (RXF 393 renal): > 100 µM | TGI (RXF 393 renal): > 100 µM | GI50 (SF-268 CNS): 70.4 µM | TGI (SF-268 CNS): > 100 µM | GI50 (SF-295 CNS): > 100 µM | TGI (SF-295 CNS): > 100 µM | GI50 (SF-539 CNS): > 100 µM | TGI (SF-539 CNS): > 100 µM | GI50 (SK-MEL-2 melanoma): > 100 µM | TGI (SK-MEL-2 melanoma): > 100 µM | GI50 (SK-MEL-28 melanoma): > 100 µM | TGI (SK-MEL-28 melanoma): > 100 µM | GI50 (SK-MEL-5 melanoma): 73.1 µM | TGI (SK-MEL-5 melanoma): > 100 µM | GI50 (SK-OV-3 ovarian): 6.02 µM | TGI (SK-OV-3 ovarian): 58.7 µM | GI50 (SN12C renal): 59.2 µM | TGI (SN12C renal): > 100 µM | GI50 (SNB-19 CNS): > 100 µM | TGI (SNB-19 CNS): > 100 µM | GI50 (SNB-75 CNS): 25.2 µM | TGI (SNB-75 CNS): > 100 µM | GI50 (SR leukemia): 23.9 µM | TGI (SR leukemia): > 100 µM | GI50 (SW-620 colon): > 100 µM | TGI (SW-620 colon): > 100 µM | GI50 (T-47D breast): 25.2 µM | TGI (T-47D breast): > 100 µM | GI50 (TK-10 renal): 16 µM | TGI (TK-10 renal): > 100 µM | GI50 (U251 CNS): 54.2 µM | TGI (U251 CNS): > 100 µM | GI50 (UACC-257 melanoma): 34.9 µM | TGI (UACC-257 melanoma): > 100 µM | GI50 (UACC-62 melanoma): 42.7 µM | TGI (UACC-62 melanoma): > 100 µM | GI50 (UO-31 renal): 57.2 µM | TGI (UO-31 renal): > 100 µM
